The values below come from patent US9067891B2, “1,4-disubstituted 3-cyano-pyridone derivatives and their use as positive allosteric modulators of mGluR2-receptors” (JANSSEN PHARMACEUTICALS, INC., priority 2007, dated 2015).

For orientation: melting point means the temperature, or range, at which the solid turns liquid.

“And” between values parts separate entries of the source, which are not always exact repeats. Identical values can stand only once.

Data set [1] concerns the target T1, human mGluR2 receptor (Homo sapiens, UniProt Q14416).
T1 construct: expressed in transfected cells; host or cells: CHO cells (membrane preparation)
The data set is described as follows: [35S]GTPγS binding assay (GTPγS-PAM), membranes from CHO cells transfected with human mGluR2. In kind it is biochemical. The following applies: positive allosteric modulation in presence of glutamate at predetermined EC25 concentration, averages of duplicate values of 11-concentration response curves, pEC50 = -logEC50, error about 0.3 log-units; for EC50: read-out: GTPgS - hR2 PAM pEC50 (converted). The text has this: The compounds provided in the present invention are positive allosteric modulators of mGluR2. These compounds appear to potentiate glutamate responses by binding to an allosteric site other than the glutamate binding site. The response of mGluR2 to a concentration of glutamate is increased when compounds of formula (I) are present. Compounds of formula (I) are expected to have their effect substantially at mGluR2 by virtue of their ability to enhance the function of the receptor. The behaviour of positive allosteric modulators tested at mGluR2 using the [^35S]GTPγS binding assay method described below and which is suitable for the identification of such compounds, and more particularly the compounds according to formula (I), are shown in Table 3.
[^35S]GTPγS Binding Assay
The [^35S]GTPγS binding assay is a functional membrane-based assay used to study G-protein coupled receptor (GPCR) function whereby incorporation of a non-hydrolysable form of GTP, [^35S]GTPγS (guanosine 5′-triphosphate, labelled with […] ^35S), is measured. The G-protein […] catalyzes the exchange of guanosine 5′-diphosphate (GDP) by guanosine triphosphate (GTP) and on activation of the GPCR by an agonist, [^35S]GTPγS, becomes incorporated and cannot be cleaved to continue the exchange cycle (Harper (1998) Current Protocols in Pharmacology 2.6.1-10, John Wiley & Sons, Inc.). […] Here we describe the use of the [^35S]GTPγS binding assay using membranes from cells transfected with the human mGluR2 receptor and adapted from Sehaffhauser et al ((2003) Molecular Pharmacology 4:798-810) for the detection of the positive allosteric modulation (PAM) properties of the compounds of this invention.
CHO-cells were cultured to pre-confluence and stimulated with 5 mM butyrate for 24 hours, prior to washing in PBS, and then collection by scraping in homogenisation buffer (50 mM Tris-HCl buffer, pH 7.4, 4° C.). Cell lysates were homogenized briefly (15 s) using an ultra-turrax homogenizer. The homogenate was centrifuged at 23 500×g for 10 minutes and the supernatant discarded. The pellet was resuspended in 5 mM Tris-HCl, pH 7.4 and centrifuged again (30 000×g, 20 min, 4° C.). The final pellet was resuspended in 50 mM HEPES, pH 7.4 and stored at −80° C. in appropriate aliquots before use. Protein concentration was determined by the Bradford method (Bio-Rad, USA) with bovine serum albumin as standard.
Measurement of mGluR2 positive allosteric modulatory activity of test compounds in membranes containing human mGluR2 was performed using frozen membranes that were thawed and briefly homogenised prior to pre-incubation in 96-well microplates (15 μg/assay well, 30 minutes, 30° C.) in assay buffer (50 mM HEPES pH 7.4, 100 mM NaCl, 3 mM MgCl2, 50 μM GDP, 10 μg/ml saponin,) with increasing concentrations of positive allosteric modulator (from 0.3 nM to 50 μM) and either a minimal pre-determined concentration of glutamate (PAM assay), or no added glutamate. For the PAM assay, membranes were pre-incubated with glutamate at EC25 concentration, i.e. a concentration that gives 25% of the maximal response glutamate, and is in accordance to published data (Pin et al. (1999) Eur. J. Pharmacol. 375:277-294). After addition of [^35S]GTPγS (0.1 nM, f.c.) to achieve a total reaction volume of 200 μl, microplates were shaken briefly and further incubated to allow [^35S]GTPγS incorporation on activation (30 minutes, 30° C.). The reaction was stopped by rapid vacuum filtration over glass-fibre filter plates (Unifilter 96-well GF/B filter plates, Perkin-Elmer, Downers Grove, USA) microplate using a 96-well plate cell harvester (Filtermate, Perkin-Elmer, USA), and then by washing three times with 300 μl of ice-cold wash buffer (Na2PO4.2H20 10 mM, NaH2PO4.H20 10 mM, pH=7.4). […]
On the technique in general: Binding of GTPγS marks nucleotide exchange on a G protein.

T1 sequence (Q14416 19-872): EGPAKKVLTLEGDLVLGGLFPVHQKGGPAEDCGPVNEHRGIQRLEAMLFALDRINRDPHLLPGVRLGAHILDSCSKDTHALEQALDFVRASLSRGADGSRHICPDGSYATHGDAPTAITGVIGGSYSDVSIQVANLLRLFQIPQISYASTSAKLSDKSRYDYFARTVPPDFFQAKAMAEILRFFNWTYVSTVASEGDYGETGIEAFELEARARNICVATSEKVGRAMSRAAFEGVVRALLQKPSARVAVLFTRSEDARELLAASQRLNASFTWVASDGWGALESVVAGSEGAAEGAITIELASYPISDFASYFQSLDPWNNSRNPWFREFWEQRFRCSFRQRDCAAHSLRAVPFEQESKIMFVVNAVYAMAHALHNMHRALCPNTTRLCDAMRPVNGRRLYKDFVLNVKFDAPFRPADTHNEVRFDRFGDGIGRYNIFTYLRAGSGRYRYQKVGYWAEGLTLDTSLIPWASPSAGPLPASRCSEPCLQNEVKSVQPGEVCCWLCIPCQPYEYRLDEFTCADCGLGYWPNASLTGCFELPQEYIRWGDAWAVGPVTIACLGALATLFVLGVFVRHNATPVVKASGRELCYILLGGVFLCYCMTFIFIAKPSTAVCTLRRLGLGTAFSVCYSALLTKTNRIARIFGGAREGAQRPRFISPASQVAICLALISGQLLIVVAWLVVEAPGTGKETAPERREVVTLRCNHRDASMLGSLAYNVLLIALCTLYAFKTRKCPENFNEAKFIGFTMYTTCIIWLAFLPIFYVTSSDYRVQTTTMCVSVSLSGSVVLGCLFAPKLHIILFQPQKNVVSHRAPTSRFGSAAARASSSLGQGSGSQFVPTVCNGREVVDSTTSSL

In turn, `Cc1cc(C)nc(Oc2ccc(-c3ccn(CC4CC4)c(=O)c3C#N)c(F)c2)c1` [Compound 1, 1-Cyclopropylmethyl-4-[4-(4,6-dimethyl-pyridin-2-yloxy)-2-fluoro-phenyl]-2-oxo-1,2-dihydro-pyridine-3-carbonitrile] registered a melting point of 137 °C. The EC50 in data set [1] is 813 nM.

The compound `CCCCn1ccc(-c2ccc(Oc3ccc(C)nc3C)c(F)c2)c(C#N)c1=O` [Compound 2, 1-Butyl-4-[4-(2,6-dimethyl-pyridin-3-yloxy)-3-fluoro-phenyl]-2-oxo-1,2-dihydro-pyridine-3-carbonitrile] registered a melting point of 156.4 °C. In addition, in data set [1], the EC50 is 138 nM.

In the case of `Cc1ccc(Oc2ccc(-c3ccn(CC4CC4)c(=O)c3C#N)cc2F)c(C)n1` [Compound 3, 1-Cyclopropylmethyl-4-[4-(2,6-dimethyl-pyridin-3-yloxy)-3-fluoro-phenyl]-2-oxo-1,2-dihydro-pyridine-3-carbonitrile], the melting point is 152.7 °C. The EC50 in data set [1] was 457 nM.

With `CCCCn1ccc(-c2ccc(Oc3ccnc(C)c3)cc2F)c(C#N)c1=O` [Compound 4, 1-Butyl-4-[2-fluoro-4-(2-methyl-pyridin-4-yloxy)-phenyl]-2-oxo-1,2-dihydro-pyridine-3-carbonitrile], the melting point amounted to 127.1 °C. For the same compound, the “GTPgS - hR2 PAM pEC50” value in data set [1] is on record as 6.41.

On to `CCCCn1ccc(-c2ccc(Oc3ccnc(C)c3)c(F)c2)c(C#N)c1=O` [Compound 5, 1-Butyl-4-[3-fluoro-4-(2-methyl-pyridin-4-yloxy)-phenyl]-2-oxo-1,2-dihydro-pyridine-3-carbonitrile], for which the melting point was 125.2 °C and 125.4 °C. Moreover, the EC50 in data set [1] is 437 nM.

As for `CCCCn1ccc(-c2ccc(Oc3cc(C)nc(C)c3)cc2F)c(C#N)c1=O` [Compound 6, 1-Butyl-4-[4-(2,6-dimethyl-pyridin-4-yloxy)-2-fluoro-phenyl]-2-oxo-1,2-dihydro-pyridine-3-carbonitrile], the melting point was found to be 169.9 °C. In data set [1], the EC50 is 437 nM.

As for `CCCCn1ccc(-c2ccc(Oc3cc(C)nc(C)c3)c(F)c2)c(C#N)c1=O` [Compound 7, 1-Butyl-4-[4-(2,6-dimethyl-pyridin-4-yloxy)-3-fluoro-phenyl]-2-oxo-1,2-dihydro-pyridine-3-carbonitrile], the EC50 in data set [1] was 347 nM.

As for `Cc1cc(Oc2ccc(-c3ccn(CC4CC4)c(=O)c3C#N)c(F)c2)cc(C)n1` [Compound 8, 1-Cyclopropylmethyl-4-[4-(2,6-dimethyl-pyridin-4-yloxy)-2-fluoro-phenyl]-2-oxo-1,2-dihydro-pyridine-3-carbonitrile], in data set [1], the EC50 is 794 nM.

As for `Cc1cc(Oc2ccc(-c3ccn(CC4CC4)c(=O)c3C#N)cc2F)cc(C)n1` [Compound 9, 1-Cyclopropylmethyl-4-[4-(2,6-dimethyl-pyridin-4-yloxy)-3-fluoro-phenyl]-2-oxo-1,2-dihydro-pyridine-3-carbonitrile], the melting point came out at 201.2 °C. Moreover, in data set [1], the EC50 was 708 nM.

Consider `Cc1nccc(Oc2ccc(-c3ccn(CC4CC4)c(=O)c3C#N)c(F)c2)c1C` [Compound 10, 1-Cyclopropylmethyl-4-[4-(2,3-dimethyl-pyridin-4-yloxy)-2-fluoro-phenyl]-2-oxo-1,2-dihydro-pyridine-3-carbonitrile], for which the EC50 in data set [1] is 372 nM.

As for `Cc1nccc(Oc2ccc(-c3ccn(CC4CC4)c(=O)c3C#N)cc2F)c1C` [Compound 11, 1-Cyclopropylmethyl-4-[4-(2,3-dimethyl-pyridin-4-yloxy)-3-fluoro-phenyl]-2-oxo-1,2-dihydro-pyridine-3-carbonitrile], in data set [1], the EC50 is 676 nM.

`CCCCn1ccc(-c2ccc(Oc3cccnc3C)c(F)c2)c(C#N)c1=O` [Compound 12] returned a melting point of 104.8 °C. Besides, the EC50 in data set [1] was 537 nM.

With `Cc1cc(Oc2ccc(-c3ccn(CCC4CC4)c(=O)c3C#N)c(F)c2)ccn1` [Compound 13], the melting point is 110.7 °C. Besides, the EC50 in data set [1] was 417 nM.

Compound `Cc1ncccc1Oc1ccc(-c2ccn(CCC3CC3)c(=O)c2C#N)cc1F` [Compound 14] showed a melting point of 145.8 °C. Besides, the EC50 in data set [1] was 380 nM.

Take `CCCCn1ccc(-c2cc(F)c(Oc3ccnc(C)c3)c(F)c2)c(C#N)c1=O` [Compound 15]: the melting point was determined as 172.2 °C. Also, in data set [1], the EC50 is 708 nM.

In turn, `CCCCn1ccc(-c2ccc(Oc3cccnc3C)cc2)c(C#N)c1=O` [Compound 16] registered a melting point of 136.7 °C. In addition, the EC50 in data set [1] is 437 nM.

With `CCCCn1ccc(-c2ccc(Oc3cc(C)ccn3)cc2)c(C#N)c1=O` [Compound 17], the EC50 in data set [1] is 1000 nM.

Consider `CCCCn1ccc(-c2ccc(Oc3ccnc(C)c3)cc2)c(C#N)c1=O` [Compound 18, 3-cyano-1-butyl-4-[4-(2-methyl-pyridin-4-yloxy)-phenyl]-pyridine-2(1H)-one], for which the melting point stood at 121 °C.

Turning to `N#Cc1c(-c2ccc(Oc3ccnc(Cl)c3)cc2)ccn(CC2CC2)c1=O` [Compound 19], the EC50 in data set [1] was 158 nM.

Regarding `CCCCn1ccc(-c2ccc(Oc3ccncc3Cl)cc2)c(C#N)c1=O` [Compound 20], the EC50 in data set [1] is 631 nM.
